According to ChEMBL document CHEMBL3987221, “The Australian National University Dept Of Immunology Pathogen Box Compounds Screened” (2018):
Active and inactive are the calls of the source. The rule behind the calls is not given here.

What was measured:
[1] = target: T1, Porphobilinogen deaminase (Homo sapiens) (UniProt P08397); settings: at 100 µM
T1 sequence (whole entry): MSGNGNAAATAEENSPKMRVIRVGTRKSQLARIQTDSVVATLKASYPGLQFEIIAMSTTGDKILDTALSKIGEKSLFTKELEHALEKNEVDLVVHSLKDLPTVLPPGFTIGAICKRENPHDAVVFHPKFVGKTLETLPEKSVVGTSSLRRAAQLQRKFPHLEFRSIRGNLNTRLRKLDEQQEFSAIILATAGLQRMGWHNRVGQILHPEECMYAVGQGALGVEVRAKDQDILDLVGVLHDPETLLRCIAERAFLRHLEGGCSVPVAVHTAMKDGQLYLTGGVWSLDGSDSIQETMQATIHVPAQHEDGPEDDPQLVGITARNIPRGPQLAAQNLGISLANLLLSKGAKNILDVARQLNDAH
Description: Compound was evaluated for the inhibition of human HMBS at 100uM

[2] = target: T2, Ferrochelatase, mitochondrial (Homo sapiens) (UniProt P22830); settings: at 10 µM
T2 sequence (whole entry): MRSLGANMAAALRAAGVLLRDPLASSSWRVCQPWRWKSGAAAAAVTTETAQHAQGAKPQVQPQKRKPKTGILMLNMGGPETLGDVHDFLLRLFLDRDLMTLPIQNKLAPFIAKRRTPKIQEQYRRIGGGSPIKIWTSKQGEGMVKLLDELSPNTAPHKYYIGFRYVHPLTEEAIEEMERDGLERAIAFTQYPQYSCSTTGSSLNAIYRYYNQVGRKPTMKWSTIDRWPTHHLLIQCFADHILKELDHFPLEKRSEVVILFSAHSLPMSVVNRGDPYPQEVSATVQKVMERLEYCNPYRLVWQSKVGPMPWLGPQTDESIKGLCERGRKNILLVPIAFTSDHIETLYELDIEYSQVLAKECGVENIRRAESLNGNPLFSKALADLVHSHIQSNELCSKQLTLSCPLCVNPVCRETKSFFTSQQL
Description: Compound was evaluated for the inhibition of human FECH at 10uM

Compound: Cc1cc(C(=O)Nc2ccc(-c3ccccc3)cc2)no1
- inhibition [1]: inactive
- inhibition [2]: inactive

Compound: CC(C)C(NC(=O)Cc1cccc2ccccc12)C(=O)Nc1cccc(C#N)c1 (stereo not given)
- inhibition [1]: inactive
- inhibition [2]: inactive

Compound: CC(C)(C)c1ccc(N[C@@H]2CCCC[C@H]2NC(=O)c2ccco2)cc1
- inhibition [1]: inactive
- inhibition [2]: inactive

Compound: CN1CCN(c2nccc3[nH]c(-c4cccc(F)c4)cc23)CC1
- inhibition [1]: inactive
- inhibition [2]: inactive

Compound: CC(C)n1nc(-c2cc3c(Cl)cccc3[nH]2)c2c(N)ncnc21
- inhibition [1]: inactive
- inhibition [2]: inactive

Compound: Cc1cc(NC(=O)c2ccc(Oc3ccc(Cl)cc3O)o2)no1
- inhibition [1]: inactive
- inhibition [2]: inactive

Compound: Cc1cc(OCC(=O)Nc2ccc(C(C)C)cc2)n(C)c(=O)c1C#N
- inhibition [1]: inactive
- inhibition [2]: inactive

Compound: Cc1ccc(Oc2ccc(NC(=O)CNc3ccccc3N3CCCC3=O)cc2)cc1
- inhibition [1]: inactive
- inhibition [2]: inactive

Compound: COc1ccc(C2=NN(C3CCCCCC3)C(=O)C2(C)C)cc1OCCCCOc1ccc(-c2nn[nH]n2)cc1
- inhibition [1]: inactive
- inhibition [2]: inactive

Compound: O=C(Nc1ccccc1-c1nc2c(C(=O)O)cccc2o1)c1ccccc1
- inhibition [1]: inactive
- inhibition [2]: inactive

Compound: O=C1N(Cc2cc3ccccc3s2)CC2CN(Cc3ccccc3)CCN12 (stereo not given)
- inhibition [1]: inactive
- inhibition [2]: inactive

Compound: CNc1nnc(Sc2cnn(-c3ccccc3)c(=O)c2Cl)s1
- inhibition [1]: inactive
- inhibition [2]: inactive

Compound: COc1ccc(-c2nc(-c3cccc(NC(=O)Cc4ccc(F)cc4)c3)no2)cc1OC
- inhibition [1]: inactive
- inhibition [2]: inactive

Compound: c1ccc(-c2[nH]c3ccccc3c2C(c2ccccn2)N2CCCC2)cc1 (stereo not given)
- inhibition [1]: inactive
- inhibition [2]: inactive

Compound: CCCS(=O)(=O)N1CCC(CO)(Cc2ccccc2C(F)(F)F)CC1
- inhibition [1]: inactive
- inhibition [2]: inactive

Compound: CCOc1ccccc1NC(C)C(=O)Nc1cc(C(F)(F)F)ccc1N1CCOCC1 (stereo not given)
- inhibition [1]: inactive
- inhibition [2]: inactive

Compound: CN1CCC(NCc2cccc(-c3ccc(S(=O)(=O)NCc4ccccc4)cc3)c2)CC1
- inhibition [1]: inactive
- inhibition [2]: inactive

Compound: FC(F)(F)c1ccc(N(c2cccnc2)C2CCN(c3ccc(C(F)(F)F)cn3)CC2)cc1
- inhibition [1]: inactive
- inhibition [2]: inactive

Compound: O=C(C(Cc1c[nH]c2ccccc12)NS(=O)(=O)c1ccc(Cl)cc1)N1CCCCC1 (stereo not given)
- inhibition [1]: inactive
- inhibition [2]: inactive

Compound: Cc1nn(Cc2ccccc2)c(Cl)c1C(=O)NC1CCCCCC1
- inhibition [1]: inactive
- inhibition [2]: inactive

Compound: O=C(NCCc1ccn(-c2ccccc2)n1)C1CCCCC1
- inhibition [1]: inactive
- inhibition [2]: inactive

Compound: Cc1ccc2nc(Cl)c(CNCc3cccs3)cc2c1
- inhibition [1]: inactive
- inhibition [2]: inactive

Compound: CCOc1ccc(-c2nc(CNCCc3ccc(F)cc3)cs2)cc1
- inhibition [1]: inactive
- inhibition [2]: inactive

Compound: CC(C)=CCC/C(C)=C\CNCCNC1C2CC3CC(C2)CC1C3 (stereo not given)
- inhibition [1]: inactive
- inhibition [2]: inactive

Compound: c1csc(-c2cnc3sc(NCC4CCOCC4)nn23)c1
- inhibition [1]: inactive
- inhibition [2]: inactive

Compound: CC(C)(C)n1nc(Cc2cccc3ccccc23)c2c(N)ncnc21
- inhibition [1]: inactive
- inhibition [2]: inactive

Compound: Cc1ccc2cc(C3NC(=O)c4ccccc4N3)c(Cl)nc2c1 (stereo not given)
- inhibition [1]: inactive
- inhibition [2]: inactive

Compound: CCN(CC)S(=O)(=O)c1ccc(Cl)c(C(=O)Nc2ccc3nc(C)sc3c2)c1
- inhibition [1]: inactive
- inhibition [2]: inactive

Compound: Cc1cccc(Cn2ccc(NC(=O)c3ccc4c(c3)OCO4)n2)c1
- inhibition [1]: inactive
- inhibition [2]: inactive

Compound: O=C(NC1CCN(c2ccnc3ccccc23)C1)c1cccc(C(F)(F)F)c1 (stereo not given)
- inhibition [1]: inactive
- inhibition [2]: inactive
